Like-named read-outs stand apart in the source and are kept apart here.

What all share (test): Further analysis of a plurality of inhibitors and a plurality of kinases (Table 5 inhibition results)
What all share (assay type): biochemical
Set-up in all cases: scale not given here

The target of experiment [1] is kinases of Table 5 (Homo sapiens, UniProt P06241). The text has this:
(§1) The wash solution is then discarded.

Experiment [2] addresses kinases of Table 5 (Homo sapiens, UniProt Q9Y6E0). To be noted: inhibitor 100 uM; for Inhibition level: kinase STK24; for Inhibition Results (Level): kinase STK24 (Part II, plate F11, Domain 0).
Text: as §1

In experiment [3] the target is T1, kinases of Table 5 (Homo sapiens, UniProt Q9UHD2).
T1 sequence (Q9UHD2 1-729): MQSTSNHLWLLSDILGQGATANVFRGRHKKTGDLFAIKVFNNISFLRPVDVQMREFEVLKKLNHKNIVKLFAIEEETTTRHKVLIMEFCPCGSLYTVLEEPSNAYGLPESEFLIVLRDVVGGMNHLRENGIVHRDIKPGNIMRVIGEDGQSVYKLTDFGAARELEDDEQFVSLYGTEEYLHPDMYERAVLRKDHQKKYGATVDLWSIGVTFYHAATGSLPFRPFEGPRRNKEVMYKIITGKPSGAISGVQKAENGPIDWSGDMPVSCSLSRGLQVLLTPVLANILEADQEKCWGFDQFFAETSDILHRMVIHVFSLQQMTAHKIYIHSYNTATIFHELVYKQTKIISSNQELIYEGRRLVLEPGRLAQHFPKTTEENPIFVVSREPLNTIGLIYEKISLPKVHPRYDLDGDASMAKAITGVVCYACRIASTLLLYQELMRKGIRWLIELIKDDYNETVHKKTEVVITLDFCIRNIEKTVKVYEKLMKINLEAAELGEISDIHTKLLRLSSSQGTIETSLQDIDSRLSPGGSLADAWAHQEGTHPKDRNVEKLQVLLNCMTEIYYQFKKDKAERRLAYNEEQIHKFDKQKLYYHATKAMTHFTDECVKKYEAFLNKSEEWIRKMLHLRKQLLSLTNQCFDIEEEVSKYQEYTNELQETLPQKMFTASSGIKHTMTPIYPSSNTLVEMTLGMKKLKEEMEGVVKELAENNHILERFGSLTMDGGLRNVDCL
To be noted: kinase TBK1 (Part I, plate G1, Domain 0); inhibitor 100 uM.
Text: as §1

For experiment [4], the target named is kinases of Table 5 (Homo sapiens, UniProt P68400). To be noted: for Inhibition Results (Level): kinase CSNK2A1 (Part II, plate D9, Domain 0).
Text: as §1

Experiment [5] has as its target T2, kinases of Table 5 (Homo sapiens, UniProt Q12866).
T2 sequence (Q12866 21-999): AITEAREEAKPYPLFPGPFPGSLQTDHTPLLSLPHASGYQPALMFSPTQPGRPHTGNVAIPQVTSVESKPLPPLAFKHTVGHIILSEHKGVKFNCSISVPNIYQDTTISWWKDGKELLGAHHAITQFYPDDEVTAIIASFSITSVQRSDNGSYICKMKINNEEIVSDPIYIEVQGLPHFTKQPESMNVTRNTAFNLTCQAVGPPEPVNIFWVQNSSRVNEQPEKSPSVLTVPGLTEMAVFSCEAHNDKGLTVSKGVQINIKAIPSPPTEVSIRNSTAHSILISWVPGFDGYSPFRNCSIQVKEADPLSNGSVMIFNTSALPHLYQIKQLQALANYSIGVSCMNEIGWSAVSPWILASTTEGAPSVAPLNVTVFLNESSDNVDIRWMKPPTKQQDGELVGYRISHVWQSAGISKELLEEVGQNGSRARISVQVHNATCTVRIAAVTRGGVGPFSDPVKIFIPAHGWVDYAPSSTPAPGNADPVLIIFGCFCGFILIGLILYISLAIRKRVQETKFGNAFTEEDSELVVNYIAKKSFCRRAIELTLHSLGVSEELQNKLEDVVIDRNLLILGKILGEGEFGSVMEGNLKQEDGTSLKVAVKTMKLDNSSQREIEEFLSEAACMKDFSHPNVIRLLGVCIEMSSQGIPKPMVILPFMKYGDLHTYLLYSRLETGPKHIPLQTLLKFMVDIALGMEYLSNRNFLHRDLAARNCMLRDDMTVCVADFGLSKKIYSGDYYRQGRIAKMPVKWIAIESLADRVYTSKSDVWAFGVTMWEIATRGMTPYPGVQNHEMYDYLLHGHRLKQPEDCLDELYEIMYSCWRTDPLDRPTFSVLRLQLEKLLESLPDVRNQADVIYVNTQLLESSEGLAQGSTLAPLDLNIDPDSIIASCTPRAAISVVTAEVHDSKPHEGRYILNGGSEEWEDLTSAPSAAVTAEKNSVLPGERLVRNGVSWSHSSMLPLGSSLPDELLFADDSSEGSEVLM
To be noted: inhibitor 100 uM; for Inhibition level: kinase MERTK; for Inhibition Results (Level): kinase MERTK (Part II, plate B11, Domain 1).
Text: as §1

Setting [6] is: kinase FYN (Part I, plate A4, Domain 0), inhibitor 100 uM.
[7] abbreviates: kinase CSNK2A1, inhibitor 100 uM.
Setting [8] is: kinase CSNK2A1, concentration not given.

Sequence of kinases of Table 5 (Homo sapiens, UniProt P68400) (P68400 whole entry): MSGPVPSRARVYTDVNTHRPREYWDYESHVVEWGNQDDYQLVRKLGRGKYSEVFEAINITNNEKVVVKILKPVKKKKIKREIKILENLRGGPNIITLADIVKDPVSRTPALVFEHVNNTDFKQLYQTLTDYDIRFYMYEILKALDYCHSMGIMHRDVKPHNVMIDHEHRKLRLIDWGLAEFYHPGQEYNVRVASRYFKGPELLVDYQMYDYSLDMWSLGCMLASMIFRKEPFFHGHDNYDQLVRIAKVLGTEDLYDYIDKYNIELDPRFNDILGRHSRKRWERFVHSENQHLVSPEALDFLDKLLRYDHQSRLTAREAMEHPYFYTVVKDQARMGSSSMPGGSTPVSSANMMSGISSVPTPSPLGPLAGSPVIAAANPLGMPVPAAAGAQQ
Sequence of kinases of Table 5 (Homo sapiens, UniProt Q9Y6E0) (Q9Y6E0 whole entry): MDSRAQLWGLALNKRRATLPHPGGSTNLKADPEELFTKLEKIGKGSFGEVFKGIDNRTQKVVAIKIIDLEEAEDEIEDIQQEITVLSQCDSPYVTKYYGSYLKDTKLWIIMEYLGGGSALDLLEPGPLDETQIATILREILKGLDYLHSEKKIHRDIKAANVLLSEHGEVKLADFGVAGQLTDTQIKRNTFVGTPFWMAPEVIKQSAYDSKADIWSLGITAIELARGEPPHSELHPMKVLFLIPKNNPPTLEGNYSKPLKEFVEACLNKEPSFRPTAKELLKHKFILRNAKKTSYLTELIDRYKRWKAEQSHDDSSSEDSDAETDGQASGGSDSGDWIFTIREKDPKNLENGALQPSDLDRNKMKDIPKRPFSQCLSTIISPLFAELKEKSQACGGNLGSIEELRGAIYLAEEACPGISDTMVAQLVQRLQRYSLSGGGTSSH
Sequence of kinases of Table 5 (Homo sapiens, UniProt P06241) (P06241 whole entry): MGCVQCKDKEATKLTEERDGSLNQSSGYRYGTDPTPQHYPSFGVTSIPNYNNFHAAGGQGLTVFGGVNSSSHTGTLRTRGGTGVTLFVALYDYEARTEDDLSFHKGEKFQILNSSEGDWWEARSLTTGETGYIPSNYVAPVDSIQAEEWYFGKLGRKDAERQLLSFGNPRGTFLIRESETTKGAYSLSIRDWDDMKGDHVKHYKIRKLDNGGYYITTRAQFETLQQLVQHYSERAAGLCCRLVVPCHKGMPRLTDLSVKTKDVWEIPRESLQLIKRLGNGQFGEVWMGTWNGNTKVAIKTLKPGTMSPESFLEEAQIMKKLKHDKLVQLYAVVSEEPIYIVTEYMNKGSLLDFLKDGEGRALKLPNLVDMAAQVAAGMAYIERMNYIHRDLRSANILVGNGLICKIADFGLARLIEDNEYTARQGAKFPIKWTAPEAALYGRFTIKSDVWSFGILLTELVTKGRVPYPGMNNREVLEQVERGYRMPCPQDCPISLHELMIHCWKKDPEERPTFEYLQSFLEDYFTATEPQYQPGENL

For the compound `N#C/C(=C/c1ccc(O)c(O)c1)C(=O)NCc1ccccc1` [AG 490], the “Inhibition Results (Level)” value on kinases of Table 5 [1] (setting [6]) and at kinases of Table 5 [3] was 2 throughout. Besides, the Inhibition level on kinases of Table 5 [2], at kinases of Table 5 [4] (setting [7]) and at kinases of Table 5 [5] was 2 in each case.

As for `COc1cc2ncnc(Nc3cccc(Cl)c3)c2cc1OC` [AG 1478], the “Inhibition Results (Level)” value on kinases of Table 5 [1] (setting [6]) and at kinases of Table 5 [3] was 2 in each case. In addition, the Inhibition level on kinases of Table 5 [2] is listed as 1; on kinases of Table 5 [4] (setting [7]), 2; at kinases of Table 5 [5], 2.

With `O=c1c(-c2ccc(O)cc2)coc2cc(O)cc(O)c12` [Genistein], the “Inhibition Results (Level)” value was 2 on kinases of Table 5 [1] (setting [6]); 1 at kinases of Table 5 [1] (kinase FYN (Part I, plate A4, Domain 0), inhibitor <3.7 mM); 2 on kinases of Table 5 [3]. The Inhibition level at kinases of Table 5 [2] amounted to 2; on kinases of Table 5 [4] (setting [8]) it was 0; on kinases of Table 5 [4] (setting [7]) it was 2; at kinases of Table 5 [5], 2.

Consider `O=S(=O)(NCCNC/C=C/c1ccc(Br)cc1)c1cccc2cnccc12` [H-89], for which the “Inhibition Results (Level)” value at kinases of Table 5 [1] (setting [6]) was 2; at kinases of Table 5 [2] it was 2; on kinases of Table 5 [3] it was 2; at kinases of Table 5 [4] (inhibitor 100 uM), 0; at kinases of Table 5 [5], 2.

Regarding `CC(C)(C)n1nc(-c2ccc(Cl)cc2)c2c(N)ncnc21` [PP2], the Inhibition level at kinases of Table 5 [2], on kinases of Table 5 [4] (setting [7]) and at kinases of Table 5 [5] was 2 each time. Also, the “Inhibition Results (Level)” value at kinases of Table 5 [3] turned out to be 1.

Turning to `O=c1c(O)c(-c2ccc(O)c(O)c2)oc2cc(O)cc(O)c12` [Quercetin], the “Inhibition Results (Level)” value was 0 at kinases of Table 5 [3] and 1 at kinases of Table 5 [5].

`Cn1cc(C2=C(c3cn(CCCSC(=N)N)c4ccccc34)C(=O)NC2=O)c2ccccc21` [Ro-31-8220]: the “Inhibition Results (Level)” value at kinases of Table 5 [1] (kinase FYN (Part I, plate A4, Domain 0), inhibitor 90 uM) was determined as 0; at kinases of Table 5 [1] (setting [6]) it was 2; at kinases of Table 5 [3], 2. In addition, the Inhibition level is listed as 2 at kinases of Table 5 [2], 0 on kinases of Table 5 [4] (setting [8]), 2 on kinases of Table 5 [4] (setting [7]) and 2 on kinases of Table 5 [5].

In the case of `CC(=O)c1c(O)c(C)c(O)c(Cc2c(O)c3c(c(C(=O)/C=C/c4ccccc4)c2O)OC(C)(C)C=C3)c1O` [Rottlerin (Mallotoxin)], the “Inhibition Results (Level)” value was 2 on kinases of Table 5 [1] (setting [6]); 1 at kinases of Table 5 [2]; 1 on kinases of Table 5 [3]; 2 at kinases of Table 5 [4] (inhibitor 100 uM); 2 at kinases of Table 5 [5].

`CN[C@@H]1C[C@H]2O[C@@](C)([C@@H]1OC)n1c3ccccc3c3c4c(c5c6ccccc6n2c5c31)C(=O)NC4` [Staurosporine]: the “Inhibition Results (Level)” value on kinases of Table 5 [1] is 2. The Inhibition level at kinases of Table 5 [4] is reported as 2.

The record behind these values is US20090099029A1, “Methods and substrates for conducting assays” (Invitrogen Corporation, priority 2005, published 2009).
